Values quoted from earlier work, collected in patent publication US10561603B2, “Core-shell structure and topical agent” (SEKISUI CHEMICAL CO., LTD., priority 2015, dated 2020).
Structures can show the parent of a compound that is named as a salt.

Settings: given with manufacturer and molecular weight of the drug raw material

Row | SMILES | water-octanol partition coefficient
1 | C[C@@H](O)[C@@H]1NC(=O)[C@H](CCCCN)NC(=O)[C@@H](Cc2c[nH]c3ccccc23)NC(=O)[C@H](Cc2ccccc2)NC(=O)[C@@H](NC(=O)[C@H](N)Cc2ccccc2)CSSC[C@@H](C(=O)N[C@H](CO)[C@@H](C)O)NC1=O [octreotide acetate] | 0.1
2 | CCCc1nc(C)c2c(=O)[nH]c(-c3cc(S(=O)(=O)N4CCN(CC)CC4)ccc3OCC)nn12 [vardenafil hydrochloride trihydrate] | 3.2
